Measurements: US9187465B2, “Oxazole tyrosine kinase inhibitors” (Sareum Limited, priority 2007, dated 2015)

Legend:
[1] = molecular target: T1, human Aurora A (Homo sapiens, UniProt O14965); test: Aurora A kinase assay (DELFIA enzyme inhibition); assay type: biochemical; details: read-out: Aurora A IC50
T1 construct: Histidine tag (N); host or cells: Sf9 insect cells (baculovirus)
T1 sequence (O14965 1-403): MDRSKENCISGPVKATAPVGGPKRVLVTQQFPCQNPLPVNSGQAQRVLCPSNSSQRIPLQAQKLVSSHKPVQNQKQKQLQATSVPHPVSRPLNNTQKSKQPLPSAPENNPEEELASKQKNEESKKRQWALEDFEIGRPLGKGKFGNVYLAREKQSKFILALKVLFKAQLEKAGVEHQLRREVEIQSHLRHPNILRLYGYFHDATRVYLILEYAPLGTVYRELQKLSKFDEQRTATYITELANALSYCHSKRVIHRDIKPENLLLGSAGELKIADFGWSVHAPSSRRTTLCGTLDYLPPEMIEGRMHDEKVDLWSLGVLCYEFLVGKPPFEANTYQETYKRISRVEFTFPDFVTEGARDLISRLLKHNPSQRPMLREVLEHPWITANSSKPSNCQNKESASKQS
Protocol: The protein was purified by one-step affinity chromatography using nickel-agarose […]
Assay reactions are set up in a 25 uL final volume on a 96 well plate. […] The reaction is allowed to proceed for 30 minutes at room temperature before stopping with 100 μL Stop solution comprising of 100 mM EDTA, 1×BSA blocker in TBS (Perbio) and 0.05% Surfact-Amps20 (Perbio).
The stopped reaction is transferred to a black 96-well Neutravidin-coated plate (Perbio) and incubated for 30 minutes to capture the biotinylated peptide substrate. […] After repeating the washing step, the plate is further incubated for one hour with Europium-labelled anti-rabbit antibody (Perkin Elmer AD0105). The wash step is repeated for a final time before DELFIA Enhancement solution (Perkin Elmer) is added to all wells for 5 minutes and the fluorescence measured on a plate reader Analyst HT (Molecular Devices).

[2] = molecular target: T2, human FLT4 (Homo sapiens, UniProt P35916); test: FLT4 kinase assay (DELFIA enzyme inhibition); assay type: biochemical; details: read-out: FLT4 IC50
T2 construct: a construct expressing the human FLT4 (789-1207) with an amino terminal GST tag; host or cells: Sf9 insect cells (baculovirus)
Protocol: A GST-kinase fusion protein of 70 KDa was produced using sf9 baculovirus expression system, with a construct expressing the human FLT4 (789-1207) with an amino terminal GST tag. The protein was purified by affinity chromatography using glutathione-agarose followed by separation on a gel filtration column.
FLT4 enzyme activity is determined using a Dissociation Enhanced Lanthanide Fluorescent Immunoassay (DELFIA) with a peptide substrate derived from the MET (Tyr 1253) peptide […] with a core sequence […].
The amount of phosphorylated peptide produced is detected by means of a phospho-Tyrosine specific Europium-labelled antibody using Time-Resolved Fluorescence at Excitation 360-35 nm and Emission 620-35 nm.
Assay reactions are set up in a 25 uL final volume on a 96 well plate. […] The reaction is allowed to proceed for 30 minutes at room temperature before stopping with 100 uL Stop solution comprising of 100 mM EDTA, 1×BSA blocker in TBS (Perbio) and 0.05% Surfact-Amps20 (Perbio).
The stopped reaction is transferred to a black 96-well Neutravidin-coated plate (Perbio) and incubated for 30 minutes to capture the biotinylated peptide substrate. After washing wells 3 times with 200 uL TBS/T buffer, Anti-Phospho-Tyr-100 antibody labelled with Eu—N1 (Perkin Elmer AD0159) is added to all wells for 60 minutes at room temperature. After a repeat washing step, DELFIA Enhancement solution (Perkin Elmer) is added to all wells for 5 minutes and the fluorescence measured on a plate reader Analyst HT (Molecular Devices).
The % inhibition of the activity is calculated and plotted in order to determine the concentration of test compound required to inhibit 50% of the enzyme activity (IC50).

T2 sequence (P35916 789-1207): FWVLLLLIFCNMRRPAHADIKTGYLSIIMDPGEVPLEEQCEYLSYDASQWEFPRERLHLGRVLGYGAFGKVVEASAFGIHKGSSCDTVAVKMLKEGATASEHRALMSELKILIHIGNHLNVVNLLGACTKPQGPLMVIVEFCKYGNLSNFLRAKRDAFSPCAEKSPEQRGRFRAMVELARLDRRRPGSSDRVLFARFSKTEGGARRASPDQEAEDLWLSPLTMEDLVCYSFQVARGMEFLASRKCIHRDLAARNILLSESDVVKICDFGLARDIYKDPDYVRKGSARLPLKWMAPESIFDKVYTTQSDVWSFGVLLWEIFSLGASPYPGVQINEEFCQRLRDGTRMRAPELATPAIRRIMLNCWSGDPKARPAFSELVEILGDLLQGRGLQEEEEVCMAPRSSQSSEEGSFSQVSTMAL

| SMILES | IC50 [1] [µM] | IC50 [2] [µM] |
| --- | --- | --- |
| COc1ccc(-c2nc(-c3ccccc3Cl)[nH]c2C(N)=O)cc1 [Example A-2, 2-(2-chlorophenyl)-4-(4-methoxyphenyl)-1H-imidazole-5-carboxamide] | < 100 | < 100 |
| COc1ccc(-c2nc(-c3ccccc3OC)[nH]c2C(N)=O)cc1 [Example A-3, 2-(2-methoxyphenyl)-4-(4-methoxyphenyl)-1H-imidazole-5-carboxamide] | < 100 | < 100 |
| COc1ccc(-c2nc(-c3cccc(OC)c3)[nH]c2C(N)=O)cc1 [Example A-4, 2-(3-methoxyphenyl)-4-(4-methoxyphenyl)-1H-imidazole-5-carboxamide] | < 100 | < 100 |
| COc1ccc(-c2nc(-c3ccc(OC)cc3)c(C(N)=O)[nH]2)cc1 [Example A-5, 2,4-bis(4-methoxyphenyl)-1H-imidazole-5-carboxamide] | < 100 | < 100 |
| COc1ccc(-c2nc(-c3ccccc3C)[nH]c2C(N)=O)cc1 [Example A-6, 4-(4-methoxyphenyl)-2-o-tolyl-1H-imidazole-5-carboxamideHH] | < 100 | < 100 |
| COc1ccc(-c2nc(-c3cccc(C)c3)[nH]c2C(N)=O)cc1 [Example A-7, 4-(4-methoxyphenyl)-2-m-tolyl-1H-imidazole-5-carboxamide] | < 100 | < 100 |
| COc1ccc(-c2nc(-c3ccc(C)cc3)[nH]c2C(N)=O)cc1 [Example A-8, 4-(4-methoxyphenyl)-2-p-tolyl-1H-imidazole-5-carboxamide] | < 100 | < 100 |
| COc1ccc(-c2nc(-c3c(Cl)cccc3Cl)[nH]c2C(N)=O)cc1 [Example A-10, 2-(2,6-dichlorophenyl)-4-(4-methoxyphenyl)-1H-imidazole-5-carboxamide] | < 100 | < 100 |
| COc1ccc(-c2nc(-c3ccccc3F)[nH]c2C(N)=O)cc1 [Example A-11, 2-(2-fluorophenyl)-4-(4-methoxyphenyl)-1H-imidazole-5-carboxamide] | < 100 | < 100 |
| COc1ccc(-c2nc(-c3cccnc3)[nH]c2C(N)=O)cc1 [Example A-12, 4-(4-methoxyphenyl)-2-(pyridin-3-yl)-1H-imidazole-5-carboxamide] | < 100 | < 100 |
| COc1ccc(-c2nc(-c3c[nH]c4ccccc34)[nH]c2C(N)=O)cc1 [Example A-13, 2-(1H-indol-3-yl)-4-(4-methoxyphenyl)-1H-imidazole-5-carboxamide] | < 100 | < 10 |
| COc1ccc(-c2nc(-c3c(F)cc(Br)cc3F)[nH]c2C(N)=O)cc1 [Example A-14, 2-(4-bromo-2,6-difluorophenyl)-4-(4-methoxyphenyl)-1H-imidazole-5-carboxamide] | < 100 | < 100 |
| COc1ccc(-c2nc(-c3c(F)cccc3Cl)[nH]c2C(N)=O)cc1 [Example A-15, 2-(2-chloro-6-fluorophenyl)-4-(4-methoxyphenyl)-1H-imidazole-5-carboxamide] | < 100 | < 100 |
| NC(=O)c1[nH]c(-c2c(F)cccc2F)nc1-c1cccs1 [Example A-16, 2-(2,6-difluorophenyl)-4-(thiophen-2-yl)-1H-imidazole-5-carboxamide] | < 100 | < 10 |
| COc1ccc(-c2nc(-c3ccncc3)[nH]c2C(N)=O)cc1 [Example B-1, 4-(4-methoxyphenyl)-2-(pyridin-4-yl)-1H-imidazole-5-carboxamide] | < 100 | < 100 |
| COc1ccc(-c2nc(-c3csc4ccccc34)[nH]c2C(N)=O)cc1 [Example B-3, 2-(benzo[b]thiophen-3-yl)-4-(4-methoxyphenyl)-1H-imidazole-5-carboxamide] | < 100 | < 100 |

| SMILES | IC50 [1] [µM] | IC50 [2] [µM] |
| --- | --- | --- |
| COc1ccc(-c2nc(-c3cn(C)c4ccccc34)[nH]c2C(N)=O)cc1 [Example B-4, 4-(4-methoxyphenyl)-2-(1-methyl-1H-indol-3-yl)-1H-imidazole-5-carboxamide] | < 100 | < 100 |
| COc1ccc(-c2nc(-c3c(F)cccc3F)[nH]c2C(N)=O)cc1 [Example B-5, 2-(2,6-difluorophenyl)-4-(4-methoxyphenyl)-1H-imidazole-5-carboxamide] | < 100 | < 100 |
| NC(=O)c1[nH]c(-c2c(F)cccc2F)nc1-c1ccccn1 [Example C-1, 2-(2,6-difluorophenyl)-4-(pyridin-2-yl)-1H-imidazole-5-carboxamide] | < 100 | < 100 |
| COc1ccc(-c2oc(-c3c(F)cccc3F)nc2C(N)=O)cc1 [Example E-2, 2-(2,6-difluorophenyl)-5-(4-methoxyphenyl)oxazole-4-carboxamide] | < 100 | < 10 |
| CN(C)c1ccc(-c2oc(-c3c(F)cccc3F)nc2C(N)=O)cc1 [Example F-3, 2-(2,6-difluorophenyl)-5-(4-(dimethylamino)phenyl)oxazole-4-carboxamide] | < 100 | < 10 |
| NC(=O)c1nc(-c2c(F)cccc2F)oc1-c1ccsc1 [Example F-5, 2-(2,6-difluorophenyl)-5-(thiophen-3-yl)oxazole-4-carboxamide] | < 100 | < 10 |
| NC(=O)c1nc(-c2c(F)cccc2F)oc1-c1ccncc1 [Example F-8, 2-(2,6-difluorophenyl)-5-(pyridin-4-yl)oxazole-4-carboxamide] | < 10 | < 10 |
| NC(=O)c1ccc(-c2oc(-c3c(F)cccc3F)nc2C(N)=O)cc1 [Example F-17, 5-(4-carbamoylphenyl)-2-(2,6-difluorophenyl)oxazole-4-carboxamide] | < 10 | < 10 |
| CC(=O)Nc1ccc(-c2oc(-c3c(F)cccc3F)nc2C(N)=O)cc1 [Example F-23, 5-(4-acetamidophenyl)-2-(2,6-difluorophenyl)oxazole-4-carboxamide] | < 100 | < 10 |
| NC(=O)c1nc(-c2c(F)cccc2F)oc1-c1cccc(C(=O)N2CCCCC2)c1 [Example F-31, 2-(2,6-Difluorophenyl)-5-(3-(piperidine-1-carbonyl)phenyl)oxazole-4-carboxamide] | < 100 | < 10 |
| COc1ccc(-c2oc(-c3ccc(C(F)(F)F)cc3)nc2C(N)=O)cc1 [Example N-4, 5-(4-methoxyphenyl)-2-(4-(trifluoromethyl)phenyl)oxazole-4-carboxamide] | < 100 | – |
| COc1ccc(-c2oc(-c3ccc(C(F)(F)F)cc3F)nc2C(N)=O)cc1 [Example N-5, 2-(2-fluoro-4-(trifluoromethyl)phenyl)-5-(4-methoxyphenyl)oxazole-4-carboxamide] | < 100 | – |
| COc1ccc(-c2oc(-c3cc(C(F)(F)F)ccc3F)nc2C(N)=O)cc1 [Example N-6, 2-(2-fluoro-5-(trifluoromethyl)phenyl)-5-(4-methoxyphenyl)oxazole-4-carboxamide] | < 100 | – |
| COc1ccc(-c2oc(-c3ccc(C)cc3)nc2C(N)=O)cc1 [Example N-9, 5-(4-methoxyphenyl)-2-p-tolyloxazole-4-carboxamide] | < 100 | – |
| COc1ccc(-c2oc(Nc3c(F)cccc3F)nc2C(N)=O)cc1 [Example R-9, 2-(2,6-difluorophenylamino)-5-(4-methoxyphenyl)oxazole-4-carboxamide] | < 10 | – |
